Usually IC50 stands for the midpoint of a concentration-inhibition curve. A lower IC50 goes with inhibition by little substance.

What all share (experiment): cell viability (CellTiter 96 Aqueous One)
Holding throughout (format): cell-based

The subject of assay [1] is HCT116 cells. The protocol:
(§1) To measure cell viability and cytotoxicity, HepG2, HEK293T, Huh-7, H22, Panc-28, HCT116 and MDA-MB-231 cells were seeded at a density of ~ 2 × 10^4 cells per well in 96-well plates (Coring, NY, USA) for one day, followed by incubation with DMSO or various concentrations of tested compound for indicated times. Then, the cells were collected to measure the cell viability using the CellTiter 96® Aqueous One Solution Cell Proliferation Assay (Promega, G3581) according to the standard protocols.
(§2) Figure S11. The effects of CH004 on cell viability in various types of cancer cell lines. (A) Dose-dependent curves of CH004 on cell viability of HepG2 cells (▲), HEK293T cells (○). Percentages of cell viability of CH004 obtained in Figure 4a were fitted to the non-linear equation using GraphPad Prism 5 to get the IC50 values of CH004 in respective cell lines. Means ± SDs (n=3). […] (B) MDA-MB-231 (breast cancer cell cline), HCT116 (colon cancer), Panc-28 cells (pancreas cancer), Huh7 cells (hepatocellular carcinoma) and H22 (mouse liver cancer) were incubated with DMSO (control) or indicated concentrations of CH004 for 24 h in a 96-well plate before assessing cell viability using the CellTiter96® Aqueous One Solution Cell Proliferation Assay (Promega). The data are shown as percentages of control (DMSO, 100%). Means ± SDs (n=3). (C) The dose-dependent curve of CH004 on cell viability. Percentages of cell viability obtained in B were fitted to the non-linear equation using GraphPad Prism 5 to get the IC50 values of CH004 in respective cell lines. […] The experiments were independently repeated twice in triplicates and a representative experiment is shown.

The subject of assay [2] is Huh7 cells. The protocol: as §1, §2
For assay [3], the system named is MDA-MB-231 cells. The settings on record: Homo sapiens, MDA-MB-231, 24 h. The procedure: as §1, §2
For assay [4], the system named is Panc-28 cells. The settings on record: 24 h. The protocol: as §1, §2

Consider `Cn1nc(Cc2ccccc2)nc2c(=O)n(C)c(=O)nc1-2` [CH004, 3-benzyl-1,6-dimethylpyrimido[5,4-e][1,2,4]triazine-5,7(1H,6H)-dione], for which the 50% inhibitory concentration (IC50) is 4 µM in assay [1] (24 h); 4.1 ± 1.2 µM in assay [1] (Homo sapiens, HCT-116, 24 h); roughly 12 µM in assay [2] (24 h); 12.4 ± 1.6 µM in assay [2] (Homo sapiens, Huh-7, 24 h); 25.8 ± 3.2 µM in assay [3]; 7.2 ± 0.5 µM in assay [4].
